Among the test systems are HL-60(TB) leukemia; CAKI-1 renal; OVCAR-3 ovarian; HT29 colon; NCI-H23 lung; HOP-92 NSCLC; RPMI-8226 leukemia; HCT-15 colon; K-562 leukemia; DMS 273 small cell lung.
Holding throughout (assay): DTP human tumour cell line panel, 48 h

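Assay format: 96-well plates, 48-hour exposure. Here, GI50 denotes the concentration required for 50% inhibition of growth. The concentration for full growth arrest is given as TGI.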

The GI50 is the concentration at which growth is held to half of that of the control. As a reminder, the TGI is the concentration at which net growth stops. The low end stands for greater sensitivity of the cells, the high end for lower sensitivity of the cells. Turning to `COc1ccc([N+](=O)[O-])c(S(=O)(=O)c2ccc(Cl)cc2)n1`, the GI50 in the experiment on HL-60(TB) leukemia is 6.8 µM; in the experiment with CAKI-1 renal, 1.61 µM; with OVCAR-3 ovarian, 2.34 µM; with HT29 colon it was 3.34 µM; with NCI-H23 lung, 4.58 µM; with HOP-92 NSCLC it was 2 µM. Besides, the GI50 in the experiment on RPMI-8226 leukemia was 3.38 µM; with HCT-15 colon it was 2.05 µM; in the experiment on K-562 leukemia, 3.02 µM. Also, the TGI with HL-60(TB) leukemia amounted to 41 µM; in the experiment on CAKI-1 renal, 3.01 µM; in the experiment on OVCAR-3 ovarian, 5.31 µM; in the experiment with HT29 colon it was 13.9 µM; with NCI-H23 lung it was 29.2 µM; in the experiment with HOP-92 NSCLC it was 6.17 µM. For the same compound, the TGI in the experiment on RPMI-8226 leukemia is 51.9 µM; in the experiment on HCT-15 colon, 5.22 µM; in the experiment with K-562 leukemia, above 100 µM.
As to `Cc1cc(Cl)ccc1N=C1NC(=O)C(CC(=O)Nc2ccc(Cl)cc2Cl)S1` (stereo unspecified), the TGI in the experiment on CAKI-1 renal, with DMS 273 small cell lung, in the experiment on OVCAR-3 ovarian, with HT29 colon, in the experiment on NCI-H23 lung and in the experiment on RPMI-8226 leukemia was above 100 µM in each case. The TGI in the experiment with HCT-15 colon and in the experiment with K-562 leukemia was above 100 µM throughout.
Turning to `CCCc1nc2c(C)cc(-c3nc4ccccc4n3C)cc2n1Cc1ccc(-c2ccccc2C(=O)O)cc1`, the GI50 was 28.8 µM with HL-60(TB) leukemia; 22.6 µM with CAKI-1 renal; 14.7 µM in the experiment with OVCAR-3 ovarian; 35.8 µM in the experiment with HT29 colon; 51.5 µM in the experiment with NCI-H23 lung; 25.7 µM in the experiment with HOP-92 NSCLC. In addition, the results for the GI50 with RPMI-8226 leukemia, in the experiment on HCT-15 colon and in the experiment with K-562 leukemia were 17.3 µM, 20.3 µM and 23.2 µM, respectively. For the same compound, the TGI in the experiment with HL-60(TB) leukemia was 77.4 µM; with CAKI-1 renal it was 61.3 µM; with OVCAR-3 ovarian it was 37.3 µM; with HT29 colon, above 100 µM; in the experiment on NCI-H23 lung, above 100 µM; in the experiment on HOP-92 NSCLC, above 100 µM. Besides, the TGI in the experiment on RPMI-8226 leukemia was 95.9 µM; in the experiment on HCT-15 colon, above 100 µM; in the experiment on K-562 leukemia, above 100 µM.
For `COc1cc(/C=C2\COc3ccc(O)c(O)c3C2=O)cc(OC)c1`, the GI50 with HL-60(TB) leukemia was 0.842 µM; with CAKI-1 renal, 1.27 µM; in the experiment on OVCAR-3 ovarian it was 0.596 µM; in the experiment on HT29 colon, 2.78 µM; in the experiment with NCI-H23 lung, 2.36 µM; in the experiment with HOP-92 NSCLC, 1.96 µM. Further, the values for the GI50 in the experiment with RPMI-8226 leukemia, with HCT-15 colon and in the experiment with K-562 leukemia were 0.558 µM, 0.483 µM and 0.471 µM, respectively. In addition, the total growth inhibition concentration (TGI) was 11.2 µM in the experiment with HL-60(TB) leukemia; 3.04 µM in the experiment on CAKI-1 renal; 1.92 µM with OVCAR-3 ovarian; 8.39 µM in the experiment on HT29 colon; 7.02 µM with NCI-H23 lung; 6.08 µM in the experiment with HOP-92 NSCLC. In addition, the results for the total growth inhibition concentration (TGI) in the experiment on RPMI-8226 leukemia, in the experiment with HCT-15 colon and in the experiment with K-562 leukemia were 4.17 µM, 10.8 µM and above 100 µM, respectively.
For the compound `NCc1nnn(Cc2ccccc2)c1N`, the TGI with HL-60(TB) leukemia, in the experiment on CAKI-1 renal, with OVCAR-3 ovarian, in the experiment with HT29 colon, in the experiment on NCI-H23 lung and in the experiment on HOP-92 NSCLC was above 100 µM throughout. The TGI in the experiment with RPMI-8226 leukemia, in the experiment on HCT-15 colon and with K-562 leukemia was above 100 µM throughout.
Turning to `COc1ccc(/C=C/c2n[nH]c3ccc(N4CCOC4=O)cc23)cc1`, the GI50 in the experiment with HL-60(TB) leukemia was 1.44 µM; in the experiment with CAKI-1 renal, 2.48 µM; in the experiment on OVCAR-3 ovarian, 2.97 µM; with HT29 colon, 1.49 µM; in the experiment with NCI-H23 lung it was 1.79 µM; with HOP-92 NSCLC, 4 µM. Also, the GI50 in the experiment on RPMI-8226 leukemia is 2.2 µM; with HCT-15 colon, 1.12 µM; in the experiment with K-562 leukemia, 2.54 µM. Also, the TGI was 4.04 µM in the experiment on HL-60(TB) leukemia; above 100 µM with CAKI-1 renal; 9.42 µM with OVCAR-3 ovarian; above 100 µM with HT29 colon; 6.18 µM in the experiment on NCI-H23 lung; 9.09 µM in the experiment on HOP-92 NSCLC. The TGI with RPMI-8226 leukemia is 5.55 µM; in the experiment with HCT-15 colon, 12.5 µM; in the experiment with K-562 leukemia it was above 100 µM.
Consider `COc1ccc(/C(C)=N/OC(=O)c2c(-c3ccccc3Cl)noc2C)cc1CN1CCOCC1`, for which the total growth inhibition concentration (TGI) was 56.1 µM with HL-60(TB) leukemia; above 100 µM with CAKI-1 renal; 68.4 µM in the experiment on OVCAR-3 ovarian; 36.9 µM with HT29 colon; above 100 µM with NCI-H23 lung; 91.8 µM in the experiment with HOP-92 NSCLC. For the same compound, the figures for the TGI in the experiment with RPMI-8226 leukemia, with HCT-15 colon and with K-562 leukemia were 93.6 µM, above 100 µM and above 100 µM, respectively.
As for `COC(=O)CCC/C=C\C[C@H]1C=CC(=O)/C1=C/C[C@@H](O)C/C=C\CC(F)(F)F`, the GI50 in the experiment with HL-60(TB) leukemia is 1.93 µM; with CAKI-1 renal it was 4.07 µM; in the experiment with OVCAR-3 ovarian it was 1.31 µM; in the experiment with HT29 colon it was 1.89 µM; in the experiment with NCI-H23 lung it was 1.9 µM; with HOP-92 NSCLC it was 3.27 µM. Besides, the GI50 in the experiment with RPMI-8226 leukemia was 1.26 µM; in the experiment with HCT-15 colon it was 1.07 µM; with K-562 leukemia it was 0.789 µM. The total growth inhibition concentration (TGI) was 7.79 µM in the experiment with HL-60(TB) leukemia; 14.8 µM with CAKI-1 renal; 3.49 µM in the experiment on OVCAR-3 ovarian; 4.49 µM in the experiment with HT29 colon; 4.16 µM in the experiment on NCI-H23 lung; 7.88 µM in the experiment on HOP-92 NSCLC. Moreover, the TGI stood at 7.9 µM in the experiment with RPMI-8226 leukemia, 3.29 µM in the experiment with HCT-15 colon and 28.3 µM in the experiment on K-562 leukemia.
As to `O=c1c2ccccc2c2nc3ccccc3nc2n1C1CCCCC1`, the TGI with CAKI-1 renal, in the experiment with DMS 273 small cell lung, in the experiment on OVCAR-3 ovarian, with HT29 colon, with NCI-H23 lung and in the experiment on RPMI-8226 leukemia was above 100 µM throughout. Further, the TGI with HCT-15 colon and with K-562 leukemia was above 100 µM each time.
Turning to `O=[N+]([O-])c1nccn1COCCF`, the TGI with HL-60(TB) leukemia, in the experiment on CAKI-1 renal, in the experiment on OVCAR-3 ovarian, with HT29 colon, in the experiment on NCI-H23 lung and in the experiment on HOP-92 NSCLC was above 100 µM each time. In addition, the TGI in the experiment with RPMI-8226 leukemia, in the experiment on HCT-15 colon and with K-562 leukemia was above 100 µM each time.
Turning to `CCOC(=O)c1sc(Nc2ccc(Cl)cc2)nc1C`, the GI50 in the experiment with HL-60(TB) leukemia is 3.16 µM; in the experiment with CAKI-1 renal, 2.09 µM; with OVCAR-3 ovarian, 1.69 µM; in the experiment with HT29 colon, 2.05 µM; in the experiment with NCI-H23 lung it was 1.5 µM; in the experiment with HOP-92 NSCLC, 0.346 µM. The GI50 in the experiment with RPMI-8226 leukemia is 1.83 µM; with HCT-15 colon, 1.62 µM; with K-562 leukemia it was 2.57 µM. Further, the TGI in the experiment with HL-60(TB) leukemia was 7.17 µM; in the experiment with CAKI-1 renal, 6.51 µM; in the experiment on OVCAR-3 ovarian, 3.92 µM; in the experiment with HT29 colon, 4.09 µM; with NCI-H23 lung, 3.56 µM; with HOP-92 NSCLC, 1.81 µM. The TGI in the experiment with RPMI-8226 leukemia is 5.65 µM; in the experiment on HCT-15 colon it was 3.92 µM; in the experiment on K-562 leukemia, 9.07 µM.

(Values after PubChem BioAssay (NCI).)
